# System: cotton aphids (Aphis gossypii)
# Assay: Test Method 9: foliar spray on cucumber seedling infested with cotton aphids (Formulation Example 5)
# Format: in vivo
# Settings: Test Example 9-1; 200 ppm; 5 days after spraying
# Description: Cucumber (Cucumis sativus) seedling (on the developmental stage of the second true leaf) is planted in a container and approximately 30 cotton aphids (Aphis gossypii) (all developmental stages of life) are released onto the leaves of the cucumber. After 1 day, the diluted solutions are sprayed to the seedling at a ratio of 10 mL/seedling. Further, after 5 days, the number of the surviving insects is examined and the controlling value is calculated by the following equation. Controlling value (%)={1−(Cb×Tai)/(Cai×Tb)}×100 wherein the symbols in the formula represent the following descriptions. • Cb: Number of the test insects in untreated group; • Cai: Number of the surviving insects at the time of the investigation in untreated group; • Tb: Number of the test insects in treated group; • Tai: Number of the surviving insects at the time of the investigation in treated group; Here the “untreated group” represents a group where the similar treatment procedure to that of the treated group except not using the test compound is done.
smiles,measurement,value
CCS(=O)(=O)c1c(-c2cnc3cc(C(F)(F)F)ccn3c2=O)nc2cc(C(F)(F)F)ccn12 [compound 6],Controlling value,≥ 90%
